According to patent EP0882010B1, “PHARMACEUTICAL AGENTS CONTAINING PERFLUOROALKYL-CONTAINING METAL COMPLEXES AND THE USE THEREOF IN TUMOUR THERAPY AND INTERVENTIONAL RADIOLOGY” (SCHERING AKTIENGESELLSCHAFT, priority 1996, dated 1997):

Key:
[1] = T1 relaxivity at 20 MHz, 37°C; format: physicochemical
Method: c) Gadolinium-Komplex von 10-[2-Hydroxy-4-aza-5-oxo-7-aza-7-(perfluoroctylsulfonyl)-nonyl]-1,4,7-tris(carboxymethyl)-1,4,7,10-tetraazacyclododecan 10 g (17,09 mmol) der Titelverbindung aus Beispiel 1b) und […] (18,79 mmol) N-Hydroxysuccinimid werden in einer Mischung aus 50 ml Dimethylformamid/50 ml Chloroform gelöst. Bei 0°C gibt man 3,88 g (18,79 mmol) Dicyclohexylcarbodiimid zu und rührt 1 Stunde bei 0°C, anschließend 3 Stunden bei Raumtemperatur. Man kühlt erneut auf 0°C und gibt 5,19 g (51,27 mmol) Triethylamin/50 ml 2-Propanol zu. Anschließend werden 10,78 g (18,79 mmol) Gadolinium-Komplex von 10-(3-Amino-2-hydroxy-propyl)-1,4,7-tris(carboxymethyl)-1,4,7,10-tetraazacyclododecan (WO 95/17451) gelöst in 50 ml Wasser zugegeben und 3 Stunden bei Raumtemperatur gerührt. Man dampft zur Trockne ein, nimmt den Rückstand in einer Mischung aus 200 ml Methanol/100 ml Chloroform auf und filtriert vom Dicyclohexylharnstoff ab. Das Filtrat wird zur Trockne eingedampft und durch RP-Chromatographie gereinigt (RP-18/Laufmittel: Gradient aus Wasser/n-Propanol/ Acetonitril). Ausbeute: 16,37 g (78 % d. Th.) eines farblosen glasigen Feststoffes Wassergehalt: 7,1 % T1-Relaxivität (L/mmol·sec) bei 20 MHz, 37°C: 41 (Wasser) 49 (Humanplasma)
e) Mangan-Komplex von 10-[2-Hydroxy-4-aza-5-oxo-7-aza-7-(perfluoroctylsulfonyl)-nonyl]-1,4,7-tris(carboxymethyl)-1,4,7,10-tetraazacyclododecan (als Natriumsalz) 5 g (5,07 mmol) der Titelverbindung aus Beispiel ld) werden in 100 ml Wasser gelöst und 0,58 g (5,07 mmol) Mangan(II) -carbonat zugegeben. Man rührt3 Stunden bei 80°C. Die Lösung wird filtriert und das Filtrat mit 1 N Natronlauge auf pH 7,2 gestellt, anschließend wird gefriergetrocknet. Ausbeute: 5,87 g (quantitativ) eines farblosen amorphen Pulvers Wassergehalt: 8,4 % T1-Relaxivität (L/mmol·sec) bei 20 MHz, 37°C: 2,7 (Wasser) 4,2 (Humanplasma)
c) Gadolinium-Komplex von 10-[2-Hydroxy-4-aza-5-oxo-7-oxa-10,10,11,11,12,12,13,13,14,14,15,15,16,16,17,17,17-heptadecafluor-heptadecyl]-1,4,7-tris(carboxymethyl)-1,4,7,10-tetraazacyclododecan 7,0 g (13,41 mmol) der Titelverbindung aus Beispiel 2b) und 1,70 g (14,75 mmol) N-Hydroxysuccinimid werden in einer Mischung aus 30 ml Dimethylformamid/ 20 ml Chloroform gelöst. Bei 0°C gibt man 3,04 g (14,75 mmol) Dicyclohexylcarbodiimid zu und rührt 1 Stunde bei 0°C, anschließend 3 Stunden bei Raumtemperatur. Man kühlt erneut auf 0°C und gibt 4,48 g (44,25 mmol) Triethylamin/50 ml 2-Propanol zu. Anschließend werden 8,46 g (14,75 mmol) Gadolinium-Komplex von 10-(3-Amino-2-hydroxy-propyl)-1,4,7-tris(carboxymethyl)-1,4,7,10-tetraazacyclododecan gelöst in 40 ml Wasser zugegeben und 3 Stunden bei Raumtemperatur gerührt. Man dampft zur Trockne ein, nimmt den Rückstand in einer Mischung aus 100 ml Methanol/30 ml Chloroform auf und filtriert vom Dicyclohexylharnstoff ab. Das Filtrat wird zur Trockne eingedampft und durch RP-Chromatographie gereinigt (RP-18/Laufmittel: Gradient aus Wasser/n-Propanol/Acetonitril). Ausbeute: 11,8 g (75 % d. Th.) eines farblosen glasigen Feststoffes Wassergehalt: 8,2 % T1-Relaxivität (L/mmol·sec) bei 20 MHz, 37°C: 19 (Wasser) 33 (Humanplasma)
c) Gadolinium-Komplex von 10-[-2Hydroxy-4-oxa-1H,1H,2H,3H,3H,5H,5H,6H,6H-perfluor-tetradecyl]-1,4,7-tris(carboxymethyl)-1,4,7,10-tetraazacyclododecan 10 g (11,54 mmol) der Titelverbindung aus Beispiel 3b) werden in einer Mischung aus 100 ml Wasser/50 ml 2-Propanol gelöst und 2,09 g (5,77 mmol) Gadoliniumoxid zugegeben. Man rührt 3 Stunden bei 80°C. Die Lösung wird filtriert und im Vakuum zur Trockne eingedampft. Ausbeute: 12,48 g (quantitativ) eines glasigen Feststoffes Wassergehalt: 5,6 % T1-Relaxivität (L/mmol·sec) bei 20 MHz, 37°C: 15,2 (Wasser) 27,5 (Humanplasma)

[2] = gut löslich at this concentration, free-flowing solution

CCN(CCCCCCCCCCC(=O)NCC(O)CN1CCN(CC(=O)[O-])CCN(CC(=O)[O-])CCN(CC(=O)[O-])CC1)S(=O)(=O)C(F)(F)C(F)(F)C(F)(F)C(F)(F)C(F)(F)C(F)(F)C(F)(F)C(F)(F)F.[Dy+3] (stereo not shown) [Beispiel 30f)]
Applizierbarkeit der Lösung (100 mmol/L in water, by hand or infusion pump through a 20 cm, 0.58 mm Øi tube at 160 µL/min): problemlos | Konsistenz der Lösung (100 mmol/L solution in water): klar durchsichtig und besitzt eine gelartig feste Konsistenz | Konsistenz mit Zusatz von Harnstoff (8 mol/L Harnstoff (final), also at substance concentration 400 mmol/L): frei fließende Lösung | Löslichkeit in 96% Ethanol (96% Ethanol, free-flowing solution): > 500 mmol/L | Löslichkeit in Rinderplasma (Rinderplasma, solution of comparable consistency): ebenso löslich wie in reinem Wasser | Einfluß auf die Konsistenz der Zubereitung (addition of 10 mmol/L HCl or NaOH, or 3 mol/L NaCl): keinen Einfluß auf die Konsistenz | Veränderung der Konsistenz durch Triton X-100 (aqueous formulation, Triton X-100, 1.7%): Verflüssigung der gelartigen Konsistenz | Veränderung der Konsistenz durch Tween 80 (aqueous formulation, Tween 80, 4.6% final concentration): keine Veränderung der Konsistenz | Löslichkeit in 66% DMSO/Wasser [2]: ≥ 150 mmol/L | Löslichkeit in 66% Propylenglycol/Wasser [2]: ≥ 250 mmol/L | concentration below which a frei fließende Lösung results (in water, printed as 'Unterhalb von etwa'): 10000 to 20000 µM | Löslichkeit in reinem DMSO (pure DMSO): praktisch unlöslich | Löslichkeit in reinem Propylenglycol (pure Propylenglycol): praktisch unlöslich

CCN(CC(=O)NCC(O)CN1CCN(CC(=O)[O-])CCN(CC(=O)[O-])CCN(CC(=O)[O-])CC1)S(=O)(=O)C(F)(F)C(F)(F)C(F)(F)C(F)(F)C(F)(F)C(F)(F)C(F)(F)C(F)(F)F.[Mn+2].[Na+] (stereo not shown) [Beispiel 1e), Mangan-Komplex von 10-[2-Hydroxy-4-aza-5-oxo-7-aza-7-(perfluoroctylsulfonyl)-nonyl]-1,4,7-tris(carboxymethyl)-1,4,7,10-tetraazacyclododecan (als Natriumsalz)]
T1-Relaxivität ([1]; Humanplasma): 4,2 L/mmol·sec | T1-Relaxivität ([1]; Wasser): 2,7 L/mmol·sec

O=C([O-])CN1CCN(CC(=O)[O-])CCN(CC(O)COCCC(F)(F)C(F)(F)C(F)(F)C(F)(F)C(F)(F)C(F)(F)C(F)(F)C(F)(F)F)CCN(CC(=O)[O-])CC1.[Gd+3] (stereo not shown) [3c), Gadolinium-Komplex von 10-[-2Hydroxy-4-oxa-1H,1H,2H,3H,3H,5H,5H,6H,6H-perfluor-tetradecyl]-1,4,7-tris(carboxymethyl)-1,4,7,10-tetraazacyclododecan]
T1-Relaxivität ([1]; Humanplasma): 27,5 L/mmol·sec | T1-Relaxivität ([1]; Wasser): 15,2 L/mmol·sec

O=C([O-])CN1CCN(CC(=O)[O-])CCN(CC(O)CNC(=O)COCCC(F)(F)C(F)(F)C(F)(F)C(F)(F)C(F)(F)C(F)(F)C(F)(F)C(F)(F)F)CCN(CC(=O)[O-])CC1.[Gd+3] (stereo not shown) [2c), Gadolinium-Komplex von 10-[2-Hydroxy-4-aza-5-oxo-7-oxa-10,10,11,11,12,12,13,13,14,14,15,15,16,16,17,17,17-heptadecafluor-heptadecyl]-1,4,7-tris(carboxymethyl)-1,4,7,10-tetraazacyclododecan]
T1-Relaxivität ([1]; Humanplasma): 33 L/mmol/s | T1-Relaxivität ([1]; Wasser): 19 L/mmol/s
